Laboratory results published in ChEMBL document CHEMBL4049404, “Discovery of (R)-1-(3-(4-Amino-3-(3-chloro-4-(pyridin-2-ylmethoxy)phenyl)-1H-pyrazolo[3,4-d]pyrimidin-1-yl)piperidin-1-yl)prop-2-en-1-one (CHMFL-EGFR-202) as a Novel Irreversible EGFR Mutant Kinase Inhibitor with a Distinct Binding Mode” (J Med Chem, 2017).

Experiments:
[1] = molecular target: Insulin-like growth factor 1 receptor (Homo sapiens) (UniProt P08069); assay: Inhibition of Tel-fused IGF1R (unknown origin) expressed in mouse BAF3 cells assessed as growth inhibition after 72 hrs by CellTiter-Glo assay; type: cell-based
[2] = molecular target: T1, Epidermal growth factor receptor (Homo sapiens, UniProt P00533); assay: Inhibition of wild-type EGFR in human NCI-H2122 cells assessed as reduction in eIF4E phosphorylation at Ser209 site at 0.01 to 3 uM by Western blot analysis; type: cell-based
T1 sequence (P00533 whole entry): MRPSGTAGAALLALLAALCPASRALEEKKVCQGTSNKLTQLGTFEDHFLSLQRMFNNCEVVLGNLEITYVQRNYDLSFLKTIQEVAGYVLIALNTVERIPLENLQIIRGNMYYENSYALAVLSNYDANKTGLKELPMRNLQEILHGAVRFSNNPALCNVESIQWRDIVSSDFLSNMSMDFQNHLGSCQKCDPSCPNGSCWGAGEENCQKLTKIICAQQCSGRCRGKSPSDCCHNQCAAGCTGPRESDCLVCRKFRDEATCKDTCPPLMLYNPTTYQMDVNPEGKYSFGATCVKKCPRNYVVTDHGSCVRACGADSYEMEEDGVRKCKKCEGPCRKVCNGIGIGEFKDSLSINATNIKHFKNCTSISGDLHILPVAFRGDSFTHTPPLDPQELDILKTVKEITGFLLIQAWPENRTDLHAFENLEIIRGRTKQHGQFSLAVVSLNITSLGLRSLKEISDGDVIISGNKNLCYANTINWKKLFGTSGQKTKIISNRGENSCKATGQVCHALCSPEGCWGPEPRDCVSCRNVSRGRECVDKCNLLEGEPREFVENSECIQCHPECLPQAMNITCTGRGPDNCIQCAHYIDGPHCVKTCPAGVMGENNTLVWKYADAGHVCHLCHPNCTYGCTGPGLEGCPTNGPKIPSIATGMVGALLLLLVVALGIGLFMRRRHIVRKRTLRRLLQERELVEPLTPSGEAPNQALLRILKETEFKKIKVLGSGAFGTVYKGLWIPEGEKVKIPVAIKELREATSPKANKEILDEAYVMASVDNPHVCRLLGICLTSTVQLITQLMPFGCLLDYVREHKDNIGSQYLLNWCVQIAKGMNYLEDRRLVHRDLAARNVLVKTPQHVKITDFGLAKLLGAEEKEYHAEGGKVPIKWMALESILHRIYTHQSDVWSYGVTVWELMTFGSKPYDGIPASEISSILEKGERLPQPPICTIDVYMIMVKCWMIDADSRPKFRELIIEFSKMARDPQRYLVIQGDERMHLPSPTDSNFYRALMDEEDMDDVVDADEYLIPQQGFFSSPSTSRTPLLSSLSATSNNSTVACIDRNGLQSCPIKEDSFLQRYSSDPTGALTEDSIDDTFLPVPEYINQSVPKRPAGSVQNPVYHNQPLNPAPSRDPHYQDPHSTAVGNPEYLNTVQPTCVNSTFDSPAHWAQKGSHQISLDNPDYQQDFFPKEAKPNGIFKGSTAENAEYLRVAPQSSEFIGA

[3] = molecular target: T1, Epidermal growth factor receptor; assay: Inhibition of wild-type EGFR in human A549 cells assessed as reduction in ERK phosphorylation at Thr202/Tyr204 site at 0.01 to 3 uM by Western blot analysis; type: cell-based; settings: a549, 3 µM
[4] = molecular target: T1, Epidermal growth factor receptor; assay: Inhibition of wild-type EGFR in human A549 cells assessed as reduction in Akt phosphorylation at 308 site at 0.01 to 3 uM by Western blot analysis; type: cell-based; settings: a549, 3 µM
Rattus norvegicus = assay: AUC (0 to t) in Sprague-Dawley rat plasma at 10 mg/kg, po after 24 hrs; type: ADME, organism-based; parameters: dose 10 mg/kg, time < 24 hr, route oral; settings: in vivo
[5] = molecular target: T1, Epidermal growth factor receptor; assay: Inhibition of recombinant human GST-tagged EGFR cytoplasmic domain expressed in baculovirus by Z'-LYTE assay
[6] = molecular target: T1, Epidermal growth factor receptor; assay: Inhibition of wild type EGFR autophosphorylation at Y1068 in human A549 cells at 0.01 to 3 uM after 4 hrs by Western blot analysis; type: cell-based; settings: a549, 4 h
[7] = molecular target: Tyrosine-protein kinase Blk (Homo sapiens, UniProt P51451); assay: Inhibition of full-length recombinant human His-tagged BLK expressed in baculovirus by Z'-LYTE assay
Chain of Tyrosine-protein kinase Blk (P51451 whole entry, the tested form may be a part): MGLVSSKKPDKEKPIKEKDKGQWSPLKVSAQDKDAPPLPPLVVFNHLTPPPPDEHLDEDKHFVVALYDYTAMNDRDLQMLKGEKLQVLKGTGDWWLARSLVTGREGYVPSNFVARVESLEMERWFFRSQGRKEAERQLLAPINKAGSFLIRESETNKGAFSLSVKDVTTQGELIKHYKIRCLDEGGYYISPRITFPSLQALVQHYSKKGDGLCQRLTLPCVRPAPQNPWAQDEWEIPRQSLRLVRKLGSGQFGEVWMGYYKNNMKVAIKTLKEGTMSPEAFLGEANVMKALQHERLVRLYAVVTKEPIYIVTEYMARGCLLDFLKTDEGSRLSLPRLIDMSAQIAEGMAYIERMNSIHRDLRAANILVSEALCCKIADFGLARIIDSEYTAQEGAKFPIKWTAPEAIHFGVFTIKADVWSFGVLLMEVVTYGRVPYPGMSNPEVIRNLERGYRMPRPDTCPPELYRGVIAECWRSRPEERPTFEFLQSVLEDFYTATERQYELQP

[8] = molecular target: Receptor tyrosine-protein kinase erbB-4 (Homo sapiens, UniProt Q15303); assay: Inhibition of recombinant human N-terminal GST-tagged ERBB4 cytoplasmic domain (708 to 993 residues) expressed in baculovirus by Z'-LYTE assay
Chain of Receptor tyrosine-protein kinase erbB-4 (Q15303 whole entry, the tested form may be a part): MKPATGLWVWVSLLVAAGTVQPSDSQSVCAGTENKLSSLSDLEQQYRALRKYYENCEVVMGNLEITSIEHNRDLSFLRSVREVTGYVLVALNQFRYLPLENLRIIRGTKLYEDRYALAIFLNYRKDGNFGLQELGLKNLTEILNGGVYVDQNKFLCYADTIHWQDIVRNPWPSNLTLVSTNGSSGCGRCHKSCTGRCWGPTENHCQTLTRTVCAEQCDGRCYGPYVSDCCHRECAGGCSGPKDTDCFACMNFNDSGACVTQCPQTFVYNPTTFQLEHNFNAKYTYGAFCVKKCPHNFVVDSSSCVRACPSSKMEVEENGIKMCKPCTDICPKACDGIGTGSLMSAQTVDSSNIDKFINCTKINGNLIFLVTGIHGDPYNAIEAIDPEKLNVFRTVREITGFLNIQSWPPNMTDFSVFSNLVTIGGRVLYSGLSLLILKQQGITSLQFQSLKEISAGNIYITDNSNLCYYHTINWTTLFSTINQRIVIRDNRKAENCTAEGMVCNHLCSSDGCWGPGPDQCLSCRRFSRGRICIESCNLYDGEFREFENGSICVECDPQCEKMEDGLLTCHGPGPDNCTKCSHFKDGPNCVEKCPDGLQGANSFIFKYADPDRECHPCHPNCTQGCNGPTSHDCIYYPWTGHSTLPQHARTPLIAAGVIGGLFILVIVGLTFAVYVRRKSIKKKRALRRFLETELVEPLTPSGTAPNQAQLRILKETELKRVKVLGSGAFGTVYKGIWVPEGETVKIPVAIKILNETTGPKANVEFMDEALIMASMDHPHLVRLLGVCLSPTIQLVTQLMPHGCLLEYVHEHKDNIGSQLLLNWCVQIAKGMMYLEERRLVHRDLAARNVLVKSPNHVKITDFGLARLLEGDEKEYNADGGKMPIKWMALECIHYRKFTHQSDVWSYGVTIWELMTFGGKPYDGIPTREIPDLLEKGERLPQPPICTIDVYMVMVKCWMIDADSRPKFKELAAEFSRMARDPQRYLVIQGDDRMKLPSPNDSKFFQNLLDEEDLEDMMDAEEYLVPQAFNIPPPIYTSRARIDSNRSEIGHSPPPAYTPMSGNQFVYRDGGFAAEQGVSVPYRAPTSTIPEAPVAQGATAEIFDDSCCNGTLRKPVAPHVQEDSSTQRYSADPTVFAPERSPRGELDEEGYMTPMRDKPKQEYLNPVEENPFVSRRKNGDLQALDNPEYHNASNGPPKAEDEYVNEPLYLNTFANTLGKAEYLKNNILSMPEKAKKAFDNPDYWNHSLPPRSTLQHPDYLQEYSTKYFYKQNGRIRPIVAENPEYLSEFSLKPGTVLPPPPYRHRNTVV

[9] = molecular target: Epidermal growth factor receptor (Homo sapiens, UniProt P00533, L858R); assay: Inhibition of EGFR L858R mutant expressed in human H3255 cells assessed as reduction in ERK phosphorylation at Thr202/Tyr204 measured after 4 hrs by Western blot analysis; type: cell-based
[10] = molecular target: Serine/threonine-protein kinase 10 (Homo sapiens) (UniProt O94804); assay: Binding affinity to wild-type human LOK expressed in bacterial system assessed as control score at 1 uM by KINOMEScan assay
[11] = molecular target: T1, Epidermal growth factor receptor; assay: Inhibition of wild-type EGFR in human A549 cells assessed as reduction in 4EBP1 phosphorylation at Thr37/46 site at 0.01 to 3 uM by Western blot analysis; type: cell-based; settings: a549, 3 µM
[12] = molecular target: T1, Epidermal growth factor receptor; assay: Inhibition of Tel-fused EGFR (unknown origin) expressed in mouse BAF3 cells assessed as growth inhibition after 72 hrs by CellTiter-Glo assay; type: cell-based
[13] = Apparent plasma clearance in Sprague-Dawley rat after 24 hrs at 10 mg/kg, po; type: ADME, organism-based
[14] = molecular target: Epidermal growth factor receptor (Homo sapiens, UniProt P00533, EX19DEL); assay: Inhibition of EGFR exon 19 deletion mutant in human PC9 cells assessed as reduction in ERK phosphorylation at Thr202/Tyr204 measured after 4 hrs by Western blot analysis; type: cell-based
[15] = molecular target: Receptor tyrosine-protein kinase erbB-2 (Homo sapiens, UniProt P04626); assay: Inhibition of recombinant human […] ERBB2 cytoplasmic domain (676 to 1255 residues) expressed in baculovirus by Z'-LYTE assay
Chain of Receptor tyrosine-protein kinase erbB-2 (P04626 whole entry, the tested form may be a part): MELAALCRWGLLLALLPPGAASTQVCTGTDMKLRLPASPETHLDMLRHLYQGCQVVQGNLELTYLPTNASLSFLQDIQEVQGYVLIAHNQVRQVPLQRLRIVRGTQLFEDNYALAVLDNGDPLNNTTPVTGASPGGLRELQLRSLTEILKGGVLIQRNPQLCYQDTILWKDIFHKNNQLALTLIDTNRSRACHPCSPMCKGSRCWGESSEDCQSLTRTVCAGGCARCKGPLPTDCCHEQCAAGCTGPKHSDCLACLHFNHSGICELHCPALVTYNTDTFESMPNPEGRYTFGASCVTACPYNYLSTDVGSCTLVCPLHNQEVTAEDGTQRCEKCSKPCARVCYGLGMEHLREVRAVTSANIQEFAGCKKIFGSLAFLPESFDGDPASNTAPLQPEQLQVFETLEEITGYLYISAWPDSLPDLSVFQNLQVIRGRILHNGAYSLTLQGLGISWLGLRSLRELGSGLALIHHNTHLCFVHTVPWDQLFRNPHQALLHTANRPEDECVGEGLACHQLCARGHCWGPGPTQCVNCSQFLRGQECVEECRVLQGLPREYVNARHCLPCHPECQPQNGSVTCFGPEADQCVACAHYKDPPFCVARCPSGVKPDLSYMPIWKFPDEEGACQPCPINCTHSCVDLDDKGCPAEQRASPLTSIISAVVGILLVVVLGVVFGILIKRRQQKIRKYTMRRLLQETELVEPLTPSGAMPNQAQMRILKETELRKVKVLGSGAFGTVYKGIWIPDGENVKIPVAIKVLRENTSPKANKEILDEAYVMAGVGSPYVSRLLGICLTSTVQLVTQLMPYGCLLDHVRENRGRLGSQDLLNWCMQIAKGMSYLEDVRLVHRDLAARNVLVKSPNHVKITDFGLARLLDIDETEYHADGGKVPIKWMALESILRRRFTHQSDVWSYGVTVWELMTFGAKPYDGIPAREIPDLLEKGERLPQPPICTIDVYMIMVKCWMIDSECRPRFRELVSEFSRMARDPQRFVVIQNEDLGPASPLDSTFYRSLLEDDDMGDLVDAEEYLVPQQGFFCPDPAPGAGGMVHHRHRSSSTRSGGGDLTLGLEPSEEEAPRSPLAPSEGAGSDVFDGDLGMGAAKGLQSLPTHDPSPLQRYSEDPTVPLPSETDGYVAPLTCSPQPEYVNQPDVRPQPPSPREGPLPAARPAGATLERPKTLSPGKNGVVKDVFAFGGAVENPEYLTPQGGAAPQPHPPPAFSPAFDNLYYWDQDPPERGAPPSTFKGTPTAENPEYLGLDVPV

[16] = molecular target: T1, Epidermal growth factor receptor; assay: Inhibition of wild-type EGFR in human A549 cells assessed as reduction in eIF4E phosphorylation at Ser209 site at 0.01 to 3 uM by Western blot analysis; type: cell-based; settings: a549, 3 µM

C=CC(=O)N1CCC[C@@H](n2nc(-c3ccc(OCc4ccccn4)c(Cl)c3)c3c(N)ncnc32)C1
GI50 [1]: > 10000 nM | inhibition (INH) [2]: Not Active | inhibition (INH) [3]: Not Active | inhibition (INH) [4]: Not Active | AUCt (Rattus norvegicus): 130 to 415 ng/mL/h | IC50 [5]: 8.3 nM | inhibition (INH) [6]: Active | IC50 [7]: 8.1 nM | IC50 [8]: 3.2 nM | EC50 [9]: < 10 nM | Activity [10]: 0.95% | inhibition (INH) [11]: Not Active | GI50 [12]: 2000 nM | CL/F [13]: 406 mL/min/kg | EC50 [14]: < 10 nM | IC50 [15]: 8.1 nM | inhibition (INH) [16]: Not Active
